Results as given in PubChem BioAssay AID1963860 (Molecular Pharmacology Branch, DTP, NCI, 2024).

Tested on: CN0375-F725-PDC KRAS spheroid viability
Assay: Anticancer human tumor CN0375-F725-PDC patient-derived colon carcinoma cell line growth inhibition [KRAS2]
Conditions: spheroids with HUVEC and MSC; for IC50: curve of first compound; for viability, T/C: stronger effect = lower value
Method in brief: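 Combination screen of spheroid viability in tumor-cell co-cultures with endothelial (HUVEC) and mesenchymal stem cell stroma. Each agent was tested in half-log dilutions, topping at clinical Cmax or at 10 microM without a known Cmax.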
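Also: spheroids exposed to agents for 7 days.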

## CCN1CCN(Cc2ccc(Nc3ncc(F)c(-c4cc(F)c5nc(C)n(C(C)C)c5c4)n3)nc2)CC1 + C=CC(=O)N1CCN(c2nc(=O)n(-c3c(C)ccnc3C(C)C)c3nc(-c4c(O)cccc4F)c(F)cc23)C(C)C1
Second compound 0.1 µM
  IC50: > 1000 nM
Second compound 0.316 µM
  IC50: > 1000 nM
Second compound 1 µM
  IC50: > 1000 nM
Second compound 3.16 µM
  IC50: > 1000 nM
Second compound 10 µM
  IC50: 947 nM
Second compound 0.1 µM, first compound 0.00316 µM
  viability, T/C: 105%
Second compound 0.1 µM, first compound 0.01 µM
  viability, T/C: 96.2%
Second compound 0.1 µM, first compound 0.0316 µM
  viability, T/C: 88.9%
Second compound 0.1 µM, first compound 0.1 µM
  viability, T/C: 96.4%
Second compound 0.1 µM, first compound 0.316 µM
  viability, T/C: 107%
Second compound 0.1 µM, first compound 1 µM
  viability, T/C: 95.4%
Second compound 0.316 µM, first compound 0.00316 µM
  viability, T/C: 106%
Second compound 0.316 µM, first compound 0.01 µM
  viability, T/C: 105%
Second compound 0.316 µM, first compound 0.0316 µM
  viability, T/C: 86.8%
Second compound 0.316 µM, first compound 0.1 µM
  viability, T/C: 91.2%
Second compound 0.316 µM, first compound 0.316 µM
  viability, T/C: 107%
Second compound 0.316 µM, first compound 1 µM
  viability, T/C: 98.3%
Second compound 1 µM, first compound 0.00316 µM
  viability, T/C: 104%
Second compound 1 µM, first compound 0.01 µM
  viability, T/C: 107%
Second compound 1 µM, first compound 0.0316 µM
  viability, T/C: 89.6%
Second compound 1 µM, first compound 0.1 µM
  viability, T/C: 98.7%
Second compound 1 µM, first compound 0.316 µM
  viability, T/C: 115%
Second compound 1 µM, first compound 1 µM
  viability, T/C: 105%
Second compound 3.16 µM, first compound 0.00316 µM
  viability, T/C: 108%
Second compound 3.16 µM, first compound 0.01 µM
  viability, T/C: 107%
Second compound 3.16 µM, first compound 0.0316 µM
  viability, T/C: 93.9%
Second compound 3.16 µM, first compound 0.1 µM
  viability, T/C: 90.7%
Second compound 3.16 µM, first compound 0.316 µM
  viability, T/C: 111%
Second compound 3.16 µM, first compound 1 µM
  viability, T/C: 102%
Second compound 10 µM, first compound 0.00316 µM
  viability, T/C: 101%
Second compound 10 µM, first compound 0.01 µM
  viability, T/C: 108%
Second compound 10 µM, first compound 0.0316 µM
  viability, T/C: 87.8%
Second compound 10 µM, first compound 0.1 µM
  viability, T/C: 80.7%
Second compound 10 µM, first compound 0.316 µM
  viability, T/C: 97.8%
Second compound 10 µM, first compound 1 µM
  viability, T/C: 47.8%
